Broadly, the IC50 is the concentration that inhibits the measured activity by half. For orientation: clearance means a measure of how efficiently the substance is removed, as volume per time. Read a low clearance as inefficient removal. The half-life is how long it takes for the measured level to halve. One may read the Tmax as the time from dosing to the highest level. As a reminder, the Cmax is the highest concentration seen after dosing. What is called bioavailability is the share of a dose that reaches the circulation, judged against a reference dose that is usually intravenous. Read a low bioavailability as little systemic uptake. As a reminder, the solubility is how much of the substance goes into solution per volume. A high value points to much dissolved substance.

Results on 32 compounds are retold here after ChEMBL document CHEMBL1157114, “Synthesis and structure-activity relationships of a series of (1H-pyrazol-4-yl)acetamide antagonists of the P2X7 receptor” (Bioorg Med Chem Lett, 2010).

Data set [1] addresses T1, P2X purinoceptor 7 (Homo sapiens) (UniProt Q99572).
T1 sequence (whole entry): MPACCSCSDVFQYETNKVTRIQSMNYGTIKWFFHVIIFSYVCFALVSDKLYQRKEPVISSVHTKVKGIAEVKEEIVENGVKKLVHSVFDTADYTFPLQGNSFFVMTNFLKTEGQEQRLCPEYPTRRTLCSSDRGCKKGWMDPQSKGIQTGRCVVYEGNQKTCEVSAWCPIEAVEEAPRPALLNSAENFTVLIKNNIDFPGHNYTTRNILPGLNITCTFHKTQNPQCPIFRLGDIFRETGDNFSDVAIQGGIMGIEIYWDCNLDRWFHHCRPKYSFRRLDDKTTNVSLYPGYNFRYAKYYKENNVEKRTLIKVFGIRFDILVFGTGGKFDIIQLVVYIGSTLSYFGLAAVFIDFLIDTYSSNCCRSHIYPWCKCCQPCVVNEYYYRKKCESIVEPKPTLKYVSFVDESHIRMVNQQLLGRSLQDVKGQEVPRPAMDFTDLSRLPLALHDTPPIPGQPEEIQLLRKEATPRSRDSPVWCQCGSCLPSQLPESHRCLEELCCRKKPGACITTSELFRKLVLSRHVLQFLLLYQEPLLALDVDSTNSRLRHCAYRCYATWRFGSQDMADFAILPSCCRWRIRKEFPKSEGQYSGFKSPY
The experiment in a line: Inhibition of human P2X7 receptor assessed as inhibition of ethidium bromide accumulation relative to control.

For data set [2], the target named is T2, P2X purinoceptor 7 (Homo sapiens, UniProt Q99572).
T2 sequence (Q99572 whole entry): T1 sequence (whole entry)
As to the kind of experiment: Inhibition of human P2X7 receptor assessed as inhibition of ethidium bromide accumulation.

Data set [3] concerns the target T3, P2X purinoceptor 7 (Rattus norvegicus, UniProt Q64663).
T3 sequence (Q64663 whole entry): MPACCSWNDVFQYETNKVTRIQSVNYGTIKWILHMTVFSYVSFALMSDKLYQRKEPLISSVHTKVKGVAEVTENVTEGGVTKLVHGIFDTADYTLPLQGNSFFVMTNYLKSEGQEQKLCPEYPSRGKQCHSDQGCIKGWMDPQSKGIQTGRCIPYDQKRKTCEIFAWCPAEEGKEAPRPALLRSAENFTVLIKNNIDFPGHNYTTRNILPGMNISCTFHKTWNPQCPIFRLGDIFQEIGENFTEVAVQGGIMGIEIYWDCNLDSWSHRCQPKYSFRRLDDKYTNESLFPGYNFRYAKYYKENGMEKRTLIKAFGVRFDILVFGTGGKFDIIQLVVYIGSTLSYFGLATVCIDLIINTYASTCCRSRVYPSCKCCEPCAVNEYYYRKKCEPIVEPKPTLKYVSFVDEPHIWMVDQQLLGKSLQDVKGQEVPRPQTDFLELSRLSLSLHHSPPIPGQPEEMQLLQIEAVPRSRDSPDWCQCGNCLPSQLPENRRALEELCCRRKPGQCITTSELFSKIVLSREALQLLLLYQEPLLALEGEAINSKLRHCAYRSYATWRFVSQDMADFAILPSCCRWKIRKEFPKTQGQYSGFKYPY
The experiment in a line: Inhibition of rat P2X7 receptor assessed as inhibition of ethidium bromide accumulation.

A short description of data set [4]: Clearance in rat blood at 1 mg/kg, iv. Type of data set: ADME, organism-based. Also noted: dose 1 mg/kg, route intravenous.
Data set [5] in a line: Half life in rat blood at 1 mg/kg, iv. Type of data set: ADME, organism-based. Also noted: dose 1 mg/kg, route intravenous.
The nature of data set [6]: Volume of distribution at steady state in rat blood at 1 mg/kg, iv. The conditions noted are these: read-out: Vdss. It is filed as ADME, organism-based. Also noted: dose 1 mg/kg, route intravenous.
Data set [7] in a line: Tmax in rat blood at 3 mg/kg, po. Also noted: dose 3 mg/kg, route oral. It is filed as ADME, organism-based.
Data set [8] is described as follows: Cmax in rat blood at 3 mg/kg, po. Also noted: dose 3 mg/kg, route oral. It is filed as ADME, organism-based.
Another data set has as its system Rattus norvegicus. As to the kind of experiment: Dose normalized AUC in rat blood at 3 mg/kg, po. Further details: dose 3 mg/kg, route oral. The conditions noted are these: in vivo. Type of data set: ADME, organism-based.
Data set [9] is described as follows: Oral bioavailability in rat blood at 3 mg/kg, po. Type of data set: ADME, organism-based.
Data set [10] is described as follows: Aqueous solubility of the compound. It is filed as physicochemical.

The structures appear in SMILES notation. Converted amounts (≈) assume the structure as drawn. Bounds are passed on as bounds.

As to `O=C(CN1CC(=O)N(c2ccccc2)C1=O)NCc1ccc(F)cc1Cl`, the Imax in [1] was 100%.

As to `COc1ccccc1CNC(=O)Cc1c(C)nn(-c2ccccc2)c1C`, on P2X purinoceptor 7 [2], the IC50 was greater than 1 µM. The Imax in [1] is 100%.

Regarding `Cc1n[nH]c(C)c1CC(=O)NCc1ccc(F)cc1Cl`, the IC50 at P2X purinoceptor 7 [2] is 0.02 µM; at P2X purinoceptor 7 [3] it was 0.158 µM. Moreover, the clearance in data set [4] came to 0.9 L/h/kg. Moreover, the half-life in data set [5] is 1.7 h. Moreover, the Vd in data set [6] was 1.6 L/kg. In addition, the Tmax in data set [7] was determined as 1 h. In [8], this compound showed a Cmax of 2.92 µM. The same compound gave an AUC in the data set with Rattus norvegicus of 58 kg·min/L. Further, the bioavailability in [9] stood at 90%. Moreover, in data set [10], the solubility amounted to 0.732 mg/mL (≈ 2480 µM). The Imax in data set [1] was determined as 100%.

Consider `Cc1nn(-c2ccc(Cl)cc2)c(C)c1CC(=O)NCc1ccc(F)cc1Cl`, for which the IC50 at P2X purinoceptor 7 [2] was 0.0631 µM. Also, the Imax in data set [1] is 100%.

Regarding `Cc1nc(-c2ccccc2)n(C)c1CC(=O)NCc1ccc(F)cc1Cl`, the IC50 on P2X purinoceptor 7 [2] was 0.0501 µM. Further, the Imax in data set [1] amounted to 100%.

As to `Cc1nn(-c2ccccc2)cc1CC(=O)NCc1ccc(F)cc1Cl`, the IC50 on P2X purinoceptor 7 [2] was 0.158 µM. Moreover, the Imax in data set [1] came out at 100%.

Regarding `Cc1sc(-c2ccccc2)nc1CC(=O)NCc1ccc(F)cc1Cl`, at P2X purinoceptor 7 [2], the IC50 is greater than 1 µM. Also, in [1], the Imax amounted to 100%.

Regarding `Cc1cccnc1CNC(=O)Cc1c(C)nn(-c2ccccc2)c1C`, on P2X purinoceptor 7 [2], the IC50 was greater than 1 µM. The Imax in data set [1] was found to be 100%.

Consider `COc1ccc(-n2nc(C)c(CC(=O)NCc3ccc(F)cc3Cl)c2C)cc1`, for which the IC50 on P2X purinoceptor 7 [2] is 0.1 µM. Besides, the Imax in data set [1] came to 100%.

Regarding `Cc1nn(-c2ccccc2)c(C)c1NC(=O)NCc1ccc(F)cc1Cl`, on P2X purinoceptor 7 [2], the IC50 was 0.251 µM. In addition, in data set [1], the Imax is 100%.

For the compound `Cc1c(CC(=O)NCc2ccc(F)cc2Cl)cnn1-c1ccccc1`, the IC50 on P2X purinoceptor 7 [2] was 0.158 µM. For the same compound, the Imax in data set [1] amounted to 100%.

Regarding `Cc1nn(-c2ccccc2)c(C)c1CC(=O)N(C)Cc1ccc(F)cc1Cl`, the IC50 at P2X purinoceptor 7 [2] was greater than 1 µM. Moreover, the Imax in [1] was 100%.

Take `Cc1nn(-c2ccccc2)c(C)c1CC(=O)NCc1cc(Cl)cc(Cl)c1`: at P2X purinoceptor 7 [2], the IC50 is greater than 0.631 µM. Moreover, in [1], the Imax came to 100%.

As to `Cc1nn(-c2ccccc2)c(C)c1CC(=O)NCc1ccc(Cl)cc1Cl`, the IC50 on P2X purinoceptor 7 [2] was 0.0794 µM. Besides, the Imax in data set [1] was found to be 100%.

`Cc1nn(-c2ccccc2)c(C)c1Cc1nnc(Cc2ccc(Cl)cc2Cl)o1`: the IC50 on P2X purinoceptor 7 [2] was 1.26 µM. The Imax in data set [1] is 100%.

Consider `Cc1nn(-c2ncccn2)c(C)c1CC(=O)NCc1ccc(F)cc1Cl`, for which the half-inhibitory concentration (IC50) at P2X purinoceptor 7 [2] was 0.0501 µM. In [1], the Imax was found to be 100%.

`Cc1nn(-c2ccccc2)c(C)c1CC(=O)NC1CCCCCC1`: the IC50 on P2X purinoceptor 7 [2] was 0.158 µM. Further, in [1], the Imax was found to be 100%.

`Cc1nn(-c2ccccc2)c(C)c1CC(=O)NCc1ccccc1`: the IC50 at P2X purinoceptor 7 [2] is greater than 1 µM. For the same compound, the Imax in data set [1] came to 100%.

In the case of `Cc1nn(Cc2cccnc2)c(C)c1CC(=O)NCc1ccc(F)cc1Cl`, on P2X purinoceptor 7 [2], the IC50 is 0.126 µM. The Imax in [1] stood at 100%.

As to `Cc1nn(C)c(C)c1CC(=O)NCc1ccc(F)cc1Cl`, the concentration for half-maximal inhibition (IC50) at P2X purinoceptor 7 [2] is 0.158 µM. Moreover, the Imax in data set [1] worked out at 100%.

Turning to `Cc1oc(-c2ccccc2)nc1CC(=O)NCc1ccc(F)cc1Cl`, the IC50 on P2X purinoceptor 7 [2] was greater than 1 µM. For the same compound, in [1], the Imax was found to be 100%.

For the compound `Cc1nn(-c2ccccc2)c(C)c1C(=O)NCc1ccc(F)cc1Cl`, the IC50 at P2X purinoceptor 7 [2] was greater than 1 µM. For the same compound, the Imax in [1] was 100%.

Turning to `Cc1nn(-c2ccccc2)c(C)c1CC(=O)NCc1ccc(F)cc1Cl`, the IC50 was 0.0398 µM on P2X purinoceptor 7 [2] and 0.1 µM on P2X purinoceptor 7 [3]. For the same compound, the concentration in solution in data set [10] (solubility) was 0.11 mg/mL (≈ 296 µM). The Imax in data set [1] came out at 100%.

As for `Cc1nn(-c2ccccc2)c(C)c1CC(=O)NCc1cccc(Cl)c1Cl`, the IC50 on P2X purinoceptor 7 [2] was 0.0251 µM. Moreover, the Imax in data set [1] is 100%.

In the case of `Cc1nn(-c2ccc(C(N)=O)cc2)c(C)c1CC(=O)NCc1ccc(F)cc1Cl`, the IC50 on P2X purinoceptor 7 [2] was 0.01 µM. The Imax in data set [1] came out at 100%.

For the compound `Cc1nn(CCN(C)C)c(C)c1CC(=O)NCc1ccc(F)cc1Cl`, the IC50 at P2X purinoceptor 7 [2] was 0.316 µM. Also, the Imax in [1] came out at 100%.

As for `Cc1nc(-c2ccccc2)sc1CC(=O)NCc1ccc(F)cc1Cl`, the IC50 on P2X purinoceptor 7 [2] was greater than 1 µM. In data set [1], the Imax was determined as 100%.

As to `Cc1nn(-c2ccccc2)c(C)c1CNC(=O)Cc1ccc(F)cc1Cl`, on P2X purinoceptor 7 [2], the half-maximal inhibitory concentration (IC50) is greater than 1 µM. Besides, the Imax in [1] was 100%.

Take `Cc1nn(-c2ccccc2)c(C)c1CC(=O)NCc1ccccc1Cl`: the IC50 at P2X purinoceptor 7 [2] is 1 µM. The Imax in data set [1] worked out at 100%.

`Cc1nn(-c2ccccc2)c(C)c1CC(=O)NC(C)(C)c1ccccc1`: at P2X purinoceptor 7 [2], the IC50 is 0.126 µM. For the same compound, in data set [1], the Imax amounted to 100%.

For `Cc1nn(Cc2ccccc2)c(C)c1CC(=O)NCc1ccc(F)cc1Cl`, the IC50 on P2X purinoceptor 7 [2] is 0.316 µM. Besides, in [1], the Imax amounted to 100%.

Take `Cc1nn(CCO)c(C)c1CC(=O)NCc1ccc(F)cc1Cl`: the IC50 on P2X purinoceptor 7 [2] is 0.2 µM. For the same compound, the Imax in [1] is 100%.
